Experiments:
Test in all cases: KINOMEscan
Format in all cases: binding
Conditions in all cases: read-out: Remaining enzyme activity
MARK3 = target: T1, MARK3 (Homo sapiens, UniProt P27448)
T1 construct: purchased Ambit (DiscoverX) KINOMEscan; Cerep
Summary of the method: (§1)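 SC81458 was screened at a single 10 μM final concentration for its ability to compete with an immobilized, active-site directed ligand for each kinase. Kinase in the eluates was measured by quantitative PCR. Beads were blocked with biotin and SeaBlock buffer holding 1% BSA, 0.05% Tween 20 and 1 mM DTT.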

FRK = target: T2, FRK (Homo sapiens, UniProt P42685)
T2 construct: purchased Ambit (DiscoverX) KINOMEscan; Cerep
Summary of the method: as §1

FLT1 = target: T3, FLT1 (Homo sapiens, UniProt P17948)
T3 construct: purchased Ambit (DiscoverX) KINOMEscan; Cerep
Summary of the method: as §1

YSK1 = target: T4, YSK1 (Homo sapiens, UniProt O00506)
T4 construct: purchased Ambit (DiscoverX) KINOMEscan; Cerep
Summary of the method: as §1

ERBB3 = target: T5, ERBB3 (Homo sapiens, UniProt P21860)
T5 construct: purchased Ambit (DiscoverX) KINOMEscan; Cerep
Summary of the method: as §1

PKMYT1 = target: T6, PKMYT1 (Homo sapiens, UniProt Q99640)
T6 construct: purchased Ambit (DiscoverX) KINOMEscan; Cerep
Summary of the method: as §1

FGFR4 = target: T7, FGFR4 (Homo sapiens, UniProt P22455)
T7 construct: purchased Ambit (DiscoverX) KINOMEscan; Cerep
Summary of the method: as §1

AURKB = target: T8, AURKB (Homo sapiens, UniProt Q96GD4)
T8 construct: purchased Ambit (DiscoverX) KINOMEscan; Cerep
Summary of the method: as §1

RIPK4 = target: T9, RIPK4 (Homo sapiens, UniProt P57078)
T9 construct: purchased Ambit (DiscoverX) KINOMEscan; Cerep
Summary of the method: as §1

EPHB4 = target: T10, EPHB4 (Homo sapiens, UniProt P54760)
T10 construct: purchased Ambit (DiscoverX) KINOMEscan; Cerep
Summary of the method: as §1

PFTK1 = target: T11, PFTK1 (Homo sapiens, UniProt O94921)
T11 construct: purchased Ambit (DiscoverX) KINOMEscan; Cerep
Summary of the method: as §1

TIE2 = target: T12, TIE2 (Homo sapiens, UniProt Q02763)
T12 construct: purchased Ambit (DiscoverX) KINOMEscan; Cerep
Summary of the method: as §1

AURKC = target: T13, AURKC (Homo sapiens, UniProt Q9UQB9)
T13 construct: purchased Ambit (DiscoverX) KINOMEscan; Cerep
Summary of the method: as §1

[1] = target: T14, RPS6KA4(Kin.Dom.2-C-term) (Homo sapiens, UniProt O75676)
T14 construct: RPS6KA4(Kin.Dom.2-C-term); purchased Ambit (DiscoverX) KINOMEscan; Cerep
Summary of the method: as §1

PIK3CA(H1047Y) = target: T15, PIK3CA(H1047Y) (Homo sapiens, UniProt P42336, H1047Y)
T15 construct: purchased Ambit (DiscoverX) KINOMEscan; Cerep
Summary of the method: as §1

[2] = target: T16, EGFR(L747-E752del, P753S) (Homo sapiens, UniProt P00533, DEL747-752/P753S)
T16 construct: purchased Ambit (DiscoverX) KINOMEscan; Cerep
Summary of the method: as §1

RIOK2 = target: T17, RIOK2 (Homo sapiens, UniProt Q9BVS4)
T17 construct: purchased Ambit (DiscoverX) KINOMEscan; Cerep
Summary of the method: as §1

MET = target: T18, MET (Homo sapiens, UniProt P08581)
T18 construct: purchased Ambit (DiscoverX) KINOMEscan; Cerep
Summary of the method: as §1

MST1R = target: T19, MST1R (Homo sapiens, UniProt Q04912)
T19 construct: purchased Ambit (DiscoverX) KINOMEscan; Cerep
Summary of the method: as §1

PIP5K1a = target: T20, PIP5K1a (Homo sapiens, UniProt Q99755)
T20 construct: purchased Ambit (DiscoverX) KINOMEscan; Cerep
Summary of the method: as §1

SBK1 = target: T21, SBK1 (Homo sapiens, UniProt Q52WX2)
T21 construct: purchased Ambit (DiscoverX) KINOMEscan; Cerep
Summary of the method: as §1

RAF1 = target: T22, RAF1 (Homo sapiens, UniProt P04049)
T22 construct: purchased Ambit (DiscoverX) KINOMEscan; Cerep
Summary of the method: as §1

HUNK = target: T23, HUNK (Homo sapiens, UniProt P57058)
T23 construct: purchased Ambit (DiscoverX) KINOMEscan; Cerep
Summary of the method: as §1

CDKL5 = target: T24, CDKL5 (Homo sapiens, UniProt O76039)
T24 construct: purchased Ambit (DiscoverX) KINOMEscan; Cerep
Summary of the method: as §1

TGFBR1 = target: T25, TGFBR1 (Homo sapiens, UniProt P36897)
T25 construct: purchased Ambit (DiscoverX) KINOMEscan; Cerep
Summary of the method: as §1

PKN2 = target: T26, PKN2 (Homo sapiens, UniProt Q16513)
T26 construct: purchased Ambit (DiscoverX) KINOMEscan; Cerep
Summary of the method: as §1

EGFR(L747-T751del, Sins) = target: T27, EGFR(L747-T751del, Sins) (Homo sapiens, UniProt P00533, DEL747-750/T751S)
T27 construct: purchased Ambit (DiscoverX) KINOMEscan; Cerep
Summary of the method: as §1

PRKD3 = target: T28, PRKD3 (Homo sapiens, UniProt O94806)
T28 construct: purchased Ambit (DiscoverX) KINOMEscan; Cerep
Summary of the method: as §1

ABL1(Y253F) = target: T29, ABL1(Y253F) (Homo sapiens, UniProt P00519, Y253F)
T29 construct: purchased Ambit (DiscoverX) KINOMEscan; Cerep
Summary of the method: as §1

EGFR(L861Q) = target: T30, EGFR(L861Q) (Homo sapiens, UniProt P00533, L861Q)
T30 construct: purchased Ambit (DiscoverX) KINOMEscan; Cerep
Summary of the method: as §1

p38-gamma = target: T31, p38-gamma (Homo sapiens, UniProt P53778)
T31 construct: purchased Ambit (DiscoverX) KINOMEscan; Cerep
Summary of the method: as §1

CHEK2 = target: T32, CHEK2 (Homo sapiens, UniProt O96017)
T32 construct: purchased Ambit (DiscoverX) KINOMEscan; Cerep
Summary of the method: as §1

ULK3 = target: T33, ULK3 (Homo sapiens, UniProt Q6PHR2)
T33 construct: purchased Ambit (DiscoverX) KINOMEscan; Cerep
Summary of the method: as §1

T7 sequence (P22455 22-802): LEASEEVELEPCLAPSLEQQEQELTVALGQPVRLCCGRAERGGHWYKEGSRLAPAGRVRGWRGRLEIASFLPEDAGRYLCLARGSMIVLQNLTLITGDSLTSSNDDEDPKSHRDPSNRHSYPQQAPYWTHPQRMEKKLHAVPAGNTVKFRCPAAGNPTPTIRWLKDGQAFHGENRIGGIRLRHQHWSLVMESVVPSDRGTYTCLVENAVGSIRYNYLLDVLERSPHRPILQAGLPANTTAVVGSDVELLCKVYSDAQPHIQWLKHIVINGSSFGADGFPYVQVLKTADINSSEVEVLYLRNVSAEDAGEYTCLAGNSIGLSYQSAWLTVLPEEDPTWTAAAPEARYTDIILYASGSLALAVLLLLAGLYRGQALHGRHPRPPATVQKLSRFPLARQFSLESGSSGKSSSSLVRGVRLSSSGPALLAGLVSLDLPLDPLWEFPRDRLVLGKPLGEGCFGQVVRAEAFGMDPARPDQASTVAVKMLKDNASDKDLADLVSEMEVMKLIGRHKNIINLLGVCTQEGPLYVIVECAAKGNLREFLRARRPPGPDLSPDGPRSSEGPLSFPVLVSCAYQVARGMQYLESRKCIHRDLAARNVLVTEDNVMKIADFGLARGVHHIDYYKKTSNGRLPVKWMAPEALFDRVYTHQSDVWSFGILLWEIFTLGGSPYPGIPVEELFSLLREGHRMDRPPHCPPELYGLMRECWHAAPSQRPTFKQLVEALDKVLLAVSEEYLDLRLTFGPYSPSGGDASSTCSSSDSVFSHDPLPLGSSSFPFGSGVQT
T31 sequence (P53778 whole entry): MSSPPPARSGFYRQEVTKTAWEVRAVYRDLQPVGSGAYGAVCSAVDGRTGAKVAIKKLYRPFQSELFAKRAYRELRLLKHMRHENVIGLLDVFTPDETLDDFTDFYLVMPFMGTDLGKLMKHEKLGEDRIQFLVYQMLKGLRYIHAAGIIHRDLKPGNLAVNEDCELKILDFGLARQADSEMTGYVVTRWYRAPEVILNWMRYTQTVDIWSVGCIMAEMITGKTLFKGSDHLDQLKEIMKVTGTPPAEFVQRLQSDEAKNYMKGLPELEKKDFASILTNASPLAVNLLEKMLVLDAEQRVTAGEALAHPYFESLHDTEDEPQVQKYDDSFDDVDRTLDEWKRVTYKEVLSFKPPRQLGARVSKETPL
T3 sequence (P17948 27-1338): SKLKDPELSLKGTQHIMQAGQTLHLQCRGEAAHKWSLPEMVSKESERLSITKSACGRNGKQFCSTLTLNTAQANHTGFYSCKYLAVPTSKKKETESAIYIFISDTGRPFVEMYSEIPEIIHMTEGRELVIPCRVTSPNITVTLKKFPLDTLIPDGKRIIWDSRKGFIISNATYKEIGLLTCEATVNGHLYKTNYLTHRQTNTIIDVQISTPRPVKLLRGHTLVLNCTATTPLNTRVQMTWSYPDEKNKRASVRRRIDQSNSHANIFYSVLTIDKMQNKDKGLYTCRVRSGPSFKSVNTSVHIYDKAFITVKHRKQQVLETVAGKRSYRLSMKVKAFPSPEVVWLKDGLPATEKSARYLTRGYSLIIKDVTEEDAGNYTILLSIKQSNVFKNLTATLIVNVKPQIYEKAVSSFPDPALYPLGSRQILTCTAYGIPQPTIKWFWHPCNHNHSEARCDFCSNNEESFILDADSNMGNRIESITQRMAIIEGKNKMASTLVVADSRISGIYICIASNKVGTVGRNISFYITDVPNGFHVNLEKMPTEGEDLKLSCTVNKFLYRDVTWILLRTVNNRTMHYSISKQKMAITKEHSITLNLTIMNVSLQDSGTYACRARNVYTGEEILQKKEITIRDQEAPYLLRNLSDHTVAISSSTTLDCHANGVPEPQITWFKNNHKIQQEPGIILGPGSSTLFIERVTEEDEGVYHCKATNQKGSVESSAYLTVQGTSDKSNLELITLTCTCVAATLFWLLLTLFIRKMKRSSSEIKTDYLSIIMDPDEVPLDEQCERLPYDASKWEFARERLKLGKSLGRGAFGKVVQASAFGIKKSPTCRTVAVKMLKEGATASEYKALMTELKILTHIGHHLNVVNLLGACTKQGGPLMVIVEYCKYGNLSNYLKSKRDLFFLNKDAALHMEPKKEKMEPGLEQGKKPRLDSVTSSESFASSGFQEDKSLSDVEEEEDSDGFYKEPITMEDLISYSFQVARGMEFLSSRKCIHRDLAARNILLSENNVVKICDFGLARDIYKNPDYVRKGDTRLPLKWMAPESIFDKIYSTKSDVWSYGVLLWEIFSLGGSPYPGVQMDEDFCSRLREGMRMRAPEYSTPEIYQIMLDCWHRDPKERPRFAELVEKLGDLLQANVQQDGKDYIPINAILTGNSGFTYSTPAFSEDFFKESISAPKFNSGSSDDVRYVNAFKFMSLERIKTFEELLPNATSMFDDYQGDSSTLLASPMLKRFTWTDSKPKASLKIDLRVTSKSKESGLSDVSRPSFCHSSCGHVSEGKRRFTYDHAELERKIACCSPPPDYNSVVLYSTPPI
T20 sequence (Q99755 whole entry): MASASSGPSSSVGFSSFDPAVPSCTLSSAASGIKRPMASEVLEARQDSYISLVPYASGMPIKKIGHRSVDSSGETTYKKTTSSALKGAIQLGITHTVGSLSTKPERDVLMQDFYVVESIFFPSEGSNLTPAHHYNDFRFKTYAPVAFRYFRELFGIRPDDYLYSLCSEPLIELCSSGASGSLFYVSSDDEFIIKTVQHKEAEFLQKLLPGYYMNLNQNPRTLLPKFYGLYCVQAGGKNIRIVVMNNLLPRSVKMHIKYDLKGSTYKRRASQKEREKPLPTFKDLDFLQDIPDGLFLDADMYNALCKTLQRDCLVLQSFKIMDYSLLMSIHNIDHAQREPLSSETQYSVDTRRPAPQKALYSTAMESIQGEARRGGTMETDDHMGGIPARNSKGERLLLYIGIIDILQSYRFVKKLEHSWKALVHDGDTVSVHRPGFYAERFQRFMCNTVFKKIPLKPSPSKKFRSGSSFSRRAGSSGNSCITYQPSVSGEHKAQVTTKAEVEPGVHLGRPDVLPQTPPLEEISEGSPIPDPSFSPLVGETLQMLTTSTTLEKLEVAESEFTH
T15 sequence (P42336 whole entry H1047Y): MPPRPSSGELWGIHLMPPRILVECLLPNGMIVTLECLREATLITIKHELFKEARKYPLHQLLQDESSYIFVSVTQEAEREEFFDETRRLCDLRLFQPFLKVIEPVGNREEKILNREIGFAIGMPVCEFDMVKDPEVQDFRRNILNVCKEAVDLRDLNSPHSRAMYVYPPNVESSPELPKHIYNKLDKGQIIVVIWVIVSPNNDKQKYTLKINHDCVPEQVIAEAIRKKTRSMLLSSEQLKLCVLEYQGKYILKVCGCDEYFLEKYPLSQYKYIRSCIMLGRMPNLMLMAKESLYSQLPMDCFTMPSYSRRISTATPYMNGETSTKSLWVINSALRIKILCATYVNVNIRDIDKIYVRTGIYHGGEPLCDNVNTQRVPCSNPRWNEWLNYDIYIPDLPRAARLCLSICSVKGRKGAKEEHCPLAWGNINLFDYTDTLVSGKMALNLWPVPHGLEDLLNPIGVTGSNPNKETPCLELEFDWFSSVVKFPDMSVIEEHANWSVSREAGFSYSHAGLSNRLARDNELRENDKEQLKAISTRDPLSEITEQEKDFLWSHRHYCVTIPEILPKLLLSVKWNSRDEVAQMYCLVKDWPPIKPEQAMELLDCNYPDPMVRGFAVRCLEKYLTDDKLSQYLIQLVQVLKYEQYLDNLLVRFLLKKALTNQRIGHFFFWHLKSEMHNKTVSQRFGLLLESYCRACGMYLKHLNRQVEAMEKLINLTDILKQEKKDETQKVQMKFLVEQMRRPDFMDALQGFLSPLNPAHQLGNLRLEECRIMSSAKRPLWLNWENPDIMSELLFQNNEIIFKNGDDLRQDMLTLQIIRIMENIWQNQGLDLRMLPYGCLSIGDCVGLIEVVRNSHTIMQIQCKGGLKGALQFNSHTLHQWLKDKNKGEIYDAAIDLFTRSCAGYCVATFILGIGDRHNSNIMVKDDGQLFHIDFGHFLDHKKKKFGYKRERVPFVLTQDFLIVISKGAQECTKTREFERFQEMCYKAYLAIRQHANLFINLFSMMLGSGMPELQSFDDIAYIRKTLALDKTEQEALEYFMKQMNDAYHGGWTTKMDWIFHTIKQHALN
T17 sequence (Q9BVS4 whole entry): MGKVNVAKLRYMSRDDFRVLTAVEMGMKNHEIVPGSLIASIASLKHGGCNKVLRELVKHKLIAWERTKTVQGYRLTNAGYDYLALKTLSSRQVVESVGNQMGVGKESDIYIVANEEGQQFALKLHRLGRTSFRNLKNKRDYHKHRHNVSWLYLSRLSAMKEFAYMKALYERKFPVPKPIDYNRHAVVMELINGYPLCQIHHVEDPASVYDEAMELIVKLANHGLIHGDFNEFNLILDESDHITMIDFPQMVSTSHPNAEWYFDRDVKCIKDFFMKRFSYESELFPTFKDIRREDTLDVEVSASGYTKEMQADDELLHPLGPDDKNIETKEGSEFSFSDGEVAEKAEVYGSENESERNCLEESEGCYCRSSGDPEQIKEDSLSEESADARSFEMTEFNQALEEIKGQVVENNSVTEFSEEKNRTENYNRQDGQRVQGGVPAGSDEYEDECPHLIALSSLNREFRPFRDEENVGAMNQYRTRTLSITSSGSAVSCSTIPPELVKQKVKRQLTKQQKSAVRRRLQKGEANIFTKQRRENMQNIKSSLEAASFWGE
T4 sequence (O00506 whole entry): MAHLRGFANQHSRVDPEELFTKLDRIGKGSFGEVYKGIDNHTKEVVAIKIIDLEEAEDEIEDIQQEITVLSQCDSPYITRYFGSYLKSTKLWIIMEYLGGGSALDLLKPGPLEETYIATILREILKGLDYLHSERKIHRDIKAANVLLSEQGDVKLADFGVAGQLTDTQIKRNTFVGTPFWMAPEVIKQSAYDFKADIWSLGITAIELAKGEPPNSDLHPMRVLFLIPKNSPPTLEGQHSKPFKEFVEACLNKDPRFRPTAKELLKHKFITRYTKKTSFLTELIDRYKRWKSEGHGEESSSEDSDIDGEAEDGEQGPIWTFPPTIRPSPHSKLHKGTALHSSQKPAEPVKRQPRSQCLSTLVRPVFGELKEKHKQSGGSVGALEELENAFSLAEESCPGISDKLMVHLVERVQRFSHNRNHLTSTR

CCCCN1CCN(C(=N)c2cccc(NC(=O)Nc3ccc(S(=O)(=O)NCc4ccc(S(N)(=O)=O)cc4)cc3)c2)CC1 [SC81458, 4-(3-(3-((4-butylpiperazin-1-yl)(imino)methyl)phenyl)ureido)-N-(4-sulfamoylbenzyl) benzenesulfonamide]
remaining binding at 10 µM (MARK3): 99%
remaining binding at 10 µM (FRK): 100%
remaining binding at 10 µM (FLT1): 91%
remaining binding at 10 µM (YSK1): 76%
remaining binding at 10 µM (ERBB3): 81%
remaining binding at 10 µM (PKMYT1): 90%
remaining binding at 10 µM (FGFR4): 100%
remaining binding at 10 µM (AURKB): 78%
remaining binding at 10 µM (RIPK4): 74%
remaining binding at 10 µM (EPHB4): 100%
remaining binding at 10 µM (PFTK1): 100%
remaining binding at 10 µM (TIE2): 100%
remaining binding at 10 µM (AURKC): 73%
remaining binding at 10 µM [1]: 92%
remaining binding at 10 µM (PIK3CA(H1047Y)): 100%
remaining binding at 10 µM [2]: 84%
remaining binding at 10 µM (RIOK2): 98%
remaining binding at 10 µM (MET): 78%
remaining binding at 10 µM (MST1R): 91%
remaining binding at 10 µM (PIP5K1a): 100%
remaining binding at 10 µM (SBK1): 72%
remaining binding at 10 µM (RAF1): 100%
remaining binding at 10 µM (HUNK): 100%
remaining binding at 10 µM (CDKL5): 100%
remaining binding at 10 µM (TGFBR1): 100%
remaining binding at 10 µM (PKN2): 67%
remaining binding at 10 µM (EGFR(L747-T751del, Sins)): 69%
remaining binding at 10 µM (PRKD3): 100%
remaining binding at 10 µM (ABL1(Y253F)): 92%
remaining binding at 10 µM (EGFR(L861Q)): 91%
remaining binding at 10 µM (p38-gamma): 85%
remaining binding at 10 µM (CHEK2): 100%
remaining binding at 10 µM (ULK3): 73%

Reference: paper PMC5290327, “SC83288 is a clinical development candidate for the treatment of severe malaria” (Nature Communications, 2017)
